Results published in US20260083851A1 (AVILAR THERAPEUTICS, INC., priority 2022, published 2026).

These molecules were tested against T1, ASGP receptor (biotinylated ASGPR) (Homo sapiens, UniProt P07306). Conditions: SPR, Biacore 8K, 25° C.; Table 1A; read-out: ASGPR KD.
T1 construct: biotin (biotinylated)
T1 sequence (P07306 1-291): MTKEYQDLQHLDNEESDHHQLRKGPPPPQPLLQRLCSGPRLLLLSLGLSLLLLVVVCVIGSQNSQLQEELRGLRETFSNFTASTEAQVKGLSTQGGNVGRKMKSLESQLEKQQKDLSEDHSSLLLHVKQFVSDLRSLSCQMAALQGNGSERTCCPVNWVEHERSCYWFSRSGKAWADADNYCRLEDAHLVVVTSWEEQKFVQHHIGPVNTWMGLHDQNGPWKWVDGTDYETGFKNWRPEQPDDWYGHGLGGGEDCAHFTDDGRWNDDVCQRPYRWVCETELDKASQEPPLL
Format: binding
A Kd of less than 10 µM was found for `O[C@@H]1[C@H](O)[C@@H](Nc2cncc(C(F)(F)F)n2)CO[C@@H]1CN1CCCCCC1` [A70, (2R,3R,4R,5S)-2-(azepan-1-ylmethyl)-5-((6-(trifluoromethyl)pyrazin-2-yl)amino)tetrahydro-2H-pyran-3,4-diol] in this work.
A Kd of less than 10 µM was found for `O[C@@H]1[C@H](O)[C@@H](Nc2cncc(C(F)(F)F)n2)CO[C@@H]1CN1CCCCCCC1` [A73, (2R,3R,4R,5S)-2-(azocan-1-ylmethyl)-5-((6-(trifluoromethyl)pyrazin-2-yl)amino)tetrahydro-2H-pyran-3,4-diol] in this work.
A Kd of less than 10 µM was found for `N#CC[C@H]1OC[C@H](Nc2cncc(C(F)(F)F)n2)[C@@H](O)[C@H]1O` [A21, 2-((2R,3R,4R,5S)-3,4-dihydroxy-5-((6-(trifluoromethyl)pyrazin-2-yl)amino)tetrahydro-2H-pyran-2-yl)acetonitrile] in this work.
A Kd of less than 10 µM was found for `OC[C@H]1NC[C@H](Nc2cncc(C(F)(F)F)n2)[C@@H](O)[C@H]1O` [A118] in this work.
A Kd of less than 10 µM was found for `O[C@@H]1[C@H](O)[C@@H](Nc2cncc(C(F)(F)F)n2)CO[C@@H]1COc1ncccn1` [A61, (2R,3R,4R,5S)-2-((pyrimidin-2-yloxy)methyl)-5-((6-(trifluoromethyl)pyrazin-2-yl)amino)tetrahydro-2H-pyran-3,4-diol] in this work.
A Kd of less than 10 µM was found for `O[C@@H]1[C@H](O)[C@@H](Nc2cncc(C(F)(F)F)n2)CO[C@@H]1CN1CCNCC1` [A91, (2R,3R,4R,5S)-2-(piperazin-1-ylmethyl)-5-((6-(trifluoromethyl)pyrazin-2-yl)amino)tetrahydro-2H-pyran-3,4-diol] in this work.

Same assay, conditions: SPR, Biacore 8K, 25° C.; Table 1B, numeric bound; read-out: ASGPR Kd
A Kd greater than 30 µM was found for `CC(C)N[C@H]1CO[C@H](CO)[C@H](O)[C@@H]1O` [A163, (2R,3R,4R,5S)-2-(hydroxymethyl)-5-(isopropylamino)tetrahydro-2H-pyran-3,4-diol] in this work.

Same assay, conditions: SPR, Biacore 8K, 25° C.; Table 1B; read-out: ASGPR Kd
A Kd of less than 10 µM was found for `C[C@H]1OC[C@H](Nc2cncc(C(F)(F)F)n2)[C@@H](O)[C@H]1O` [A155, (2R,3R,4R,5S)-2-methyl-5-((6-(trifluoromethyl)pyrazin-2-yl)amino)tetrahydro-2H-pyran-3,4-diol] in this work.
A Kd of less than 10 µM was found for `O[C@@H]1[C@H](O)[C@@H](Nc2cncc(F)n2)CO[C@@H]1COc1cncc(F)n1` [A154, (2R,3R,4R,5S)-5-((6-fluoropyrazin-2-yl)amino)-2-(((6-fluoropyrazin-2-yl)oxy)methyl)tetrahydro-2H-pyran-3,4-diol] in this work.
A Kd of 10 to 100 µM was found for `COc1cncnc1N[C@H]1CO[C@H](CO)[C@H](O)[C@@H]1O` [A156, (2R,3R,4R,5S)-2-(hydroxymethyl)-5-((5-methoxypyrimidin-4-yl)amino)tetrahydro-2H-pyran-3,4-diol] in this work.
A Kd of less than 10 µM was found for `NCc1ccc(N2CCC(CN3CCN(C[C@H]4OC[C@H](Nc5cncc(C(F)(F)F)n5)[C@@H](O)[C@H]4O)CC3)CC2)cc1` [A165, (2R,3R,4R,5S)-2-((4-((1-(4-(aminomethyl)phenyl)piperidin-4-yl)methyl)piperazin-1-yl)methyl)-5-((6-(trifluoromethyl)pyrazin-2-yl)amino)tetrahydro-2H-pyran-3,4-diol] in this work.

Same assay, conditions: SPR, Biacore 8K, 25° C.; Table 1C, numeric bound; read-out: ASGPR KD
A Kd greater than 30 µM was found for `OC[C@H]1OC[C@H](Nc2ncc3nc[nH]c3n2)[C@@H](O)[C@H]1O` [A197, (2R,3R,4R,5S)-5-((9H-purin-2-yl)amino)-2-(hydroxymethyl)tetrahydro-2H-pyran-3,4-diol] in this work.

Same assay, conditions: SPR, Biacore 8K, 25° C.; Table 1C; read-out: ASGPR KD
A Kd of less than 10 µM was found for `O[C@@H]1[C@H](O)[C@@H](Oc2cccc(C(F)(F)F)n2)CO[C@@H]1COc1ccc(Br)cc1` [A238] in this work.
A Kd of less than 10 µM was found for `O[C@@H]1[C@H](O)[C@@H](Oc2cccc(C(F)(F)F)n2)CO[C@@H]1COc1ccc(Br)c(F)c1` [A198, (2R,3R,4S,5S)-2-((4-bromo-3-fluorophenoxy)methyl)-5-((6-(trifluoromethyl)pyridin-2-yl)oxy)tetrahydro-2H-pyran-3,4-diol] in this work.
A Kd of less than 10 µM was found for `Nc1ccc(OC[C@H]2OC[C@H](Oc3cccc(C(F)(F)F)n3)[C@@H](O)[C@H]2O)nn1` [A323] in this work.
A Kd of less than 10 µM was found for `O[C@@H]1[C@H](O)[C@@H](Oc2cccc(C(F)(F)F)n2)CO[C@@H]1COc1ccc(-c2ccccc2)cc1` [A190, (2R,3R,4S,5S)-2-(([1,1′-biphenyl]-4-yloxy)methyl)-5-((6-(trifluoromethyl)pyridin-2-yl)oxy)tetrahydro-2H-pyran-3,4-diol] in this work.
A Kd of less than 10 µM was found for `CC(C)(C)OC(=O)N1CCC(Cc2ccc(OC[C@H]3OC[C@H](Oc4cccc(C(F)(F)F)n4)[C@@H](O)[C@H]3O)nn2)CC1` [A280] in this work.
A Kd of less than 10 µM was found for `O[C@@H]1[C@H](O)[C@@H](Nc2cncc(C(F)(F)F)n2)CO[C@@H]1C(F)F` [A179, (2S,3R,4R,5S)-2-(difluoromethyl)-5-((6-(trifluoromethyl)pyrazin-2-yl)amino)tetrahydro-2H-pyran-3,4-diol] in this work.
A Kd of less than 10 µM was found for `O[C@@H]1[C@H](O)[C@@H](Oc2cccc(C(F)(F)F)n2)CO[C@@H]1COc1ccnnc1` [A288] in this work.
A Kd of less than 10 µM was found for `O=C(O)c1ccc(N2CCN(C[C@H]3OC[C@H](Oc4cccc(C(F)(F)F)n4)[C@@H](O)[C@H]3O)CC2)nn1` [A276] in this work.
A Kd of less than 10 µM was found for `O[C@@H]1[C@H](O)[C@@H](Oc2cccc(C(F)(F)F)n2)CO[C@@H]1CN1CCN(c2cccnc2)CC1` [A275] in this work.
A Kd of less than 10 µM was found for `O=C1c2ccc(F)cc2CN1C[C@H]1OC[C@H](Oc2cccc(C(F)(F)F)n2)[C@@H](O)[C@H]1O` [A273] in this work.
A Kd of less than 10 µM was found for `O[C@@H]1[C@H](O)[C@@H](Nc2cccc(C(F)(F)F)n2)CO[C@@H]1COc1ncccn1` [A226, (2R,3R,4R,5S)-2-((pyrimidin-2-yloxy)methyl)-5-((6-(trifluoromethyl)pyridine-2-yl)amino)tetrahydro-2H-pyran-3,4-diol] in this work.
A Kd of less than 10 µM was found for `O=C(O)COCCOCC(=O)NC[C@H]1OC[C@H](Oc2cccc(C(F)(F)F)n2)[C@@H](O)[C@H]1O` [A298] in this work.
A Kd of less than 10 µM was found for `O=C(O)c1ccc(OC[C@@]23CO[C@@H](O2)[C@H](Nc2cncc(C(F)(F)F)n2)[C@@H](O)[C@H]3O)nn1` [A281] in this work.
A Kd of less than 10 µM was found for `O=C(O)c1ccc(-c2ccc(OC[C@H]3OC[C@H](Oc4cccc(C(F)(F)F)n4)[C@@H](O)[C@H]3O)cc2)cc1` [A228, 4′-(((2R,3R,4S,5S)-3,4-dihydroxy-5-((6-(trifluoromethyl)pyridin-2-yl)oxy)tetrahydro-2H-pyran-2-yl)methoxy)-[1,1′-biphenyl]-4-carboxylic acid] in this work.

Same assay, conditions: SPR, Biacore 8K, 25° C.; Table 1D; read-out: ASGPR KD
A Kd of less than 10 µM was found for `O[C@@H]1[C@@H](Oc2cccc(C(F)(F)F)n2)CN(c2ccncn2)C[C@@H]1O` [Compound A248] in this work.
A Kd of less than 10 µM was found for `O[C@@H]1[C@@H](Nc2cncc(C(F)(F)F)n2)CN(CC(F)(F)F)C[C@@H]1O` [A367] in this work.
A Kd of 10 to 100 µM was found for `CC(=O)N[C@H]1CN(C(=O)CCCCC(=O)OCc2ccccc2)C[C@H](O)[C@@H]1O` [A407] in this work.
A Kd of less than 10 µM was found for `O=C(c1ccc(C(F)(F)F)cn1)N1C[C@H](Nc2cncc(C(F)(F)F)n2)[C@@H](O)[C@@H](O)C1` [A378] in this work.
A Kd of less than 10 µM was found for `O=C(O)c1ccc(-c2ccc(C(=O)N3C[C@H](Nc4cncc(C(F)(F)F)n4)[C@@H](O)[C@@H](O)C3)cc2)cc1` [A383] in this work.
A Kd of less than 10 µM was found for `O[C@@H]1[C@@H](Nc2cncc(C(F)(F)F)n2)CN(c2cccnn2)C[C@@H]1O` [A395] in this work.

Same assay, conditions: SPR, Biacore 8K, 25° C.; Table 1E; read-out: ASGPR KD
A Kd of less than 10 µM was found for `C[C@H]1O[C@H](COc2cnccn2)[C@H](Oc2cccc(C(F)(F)F)n2)[C@@H](O)[C@H]1O` [A449] in this work.
A Kd of less than 10 µM was found for `C[C@H]1O[C@H](CCc2ccncc2)[C@H](Oc2cccc(C(F)(F)F)n2)[C@@H](O)[C@H]1O` [A439] in this work.
A Kd of less than 10 µM was found for `C[C@H]1O[C@H](COc2ncccn2)[C@H](Oc2cccc(C(F)(F)F)n2)[C@@H](O)[C@H]1O` [A447] in this work.
